From PMC5569448 (Iranian Journal of Basic Medical Sciences, 2017)

Assays:
Type in all cases: biochemical
[1] = molecular target: butyrylcholinesterase (BuChE) (Homo sapiens, UniProt P06276); assay: BuChE inhibition by Ellman's method; settings: for inhibition at 35 µM: read-out: BuChE % inhibition
[2] = molecular target: acetylcholinesterase (AChE) (Homo sapiens, UniProt P22303); assay: AChE inhibition by Ellman's method; settings: for inhibition at 35 µM: read-out: AChE % inhibition
AChE = AChE (Homo sapiens, UniProt P22303); assay: Kinetic study of AChE inhibition
Sequence of AChE (P22303 32-614, species assumed): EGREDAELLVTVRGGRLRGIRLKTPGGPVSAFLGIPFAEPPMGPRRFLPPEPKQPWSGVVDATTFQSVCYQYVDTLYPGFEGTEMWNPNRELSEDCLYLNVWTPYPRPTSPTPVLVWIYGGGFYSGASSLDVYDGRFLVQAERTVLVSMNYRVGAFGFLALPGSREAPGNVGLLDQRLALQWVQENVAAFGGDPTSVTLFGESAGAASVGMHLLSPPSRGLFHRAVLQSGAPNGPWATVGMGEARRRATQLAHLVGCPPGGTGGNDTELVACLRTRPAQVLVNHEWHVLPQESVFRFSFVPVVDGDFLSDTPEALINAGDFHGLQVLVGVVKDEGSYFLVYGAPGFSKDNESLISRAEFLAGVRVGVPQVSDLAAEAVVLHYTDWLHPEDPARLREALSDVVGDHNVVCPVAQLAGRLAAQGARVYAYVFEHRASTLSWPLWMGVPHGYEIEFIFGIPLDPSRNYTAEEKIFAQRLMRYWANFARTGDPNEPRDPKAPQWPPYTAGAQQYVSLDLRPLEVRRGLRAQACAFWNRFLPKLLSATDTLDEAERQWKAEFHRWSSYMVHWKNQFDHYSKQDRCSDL

Sequence of butyrylcholinesterase (BuChE) (P06276 29-602): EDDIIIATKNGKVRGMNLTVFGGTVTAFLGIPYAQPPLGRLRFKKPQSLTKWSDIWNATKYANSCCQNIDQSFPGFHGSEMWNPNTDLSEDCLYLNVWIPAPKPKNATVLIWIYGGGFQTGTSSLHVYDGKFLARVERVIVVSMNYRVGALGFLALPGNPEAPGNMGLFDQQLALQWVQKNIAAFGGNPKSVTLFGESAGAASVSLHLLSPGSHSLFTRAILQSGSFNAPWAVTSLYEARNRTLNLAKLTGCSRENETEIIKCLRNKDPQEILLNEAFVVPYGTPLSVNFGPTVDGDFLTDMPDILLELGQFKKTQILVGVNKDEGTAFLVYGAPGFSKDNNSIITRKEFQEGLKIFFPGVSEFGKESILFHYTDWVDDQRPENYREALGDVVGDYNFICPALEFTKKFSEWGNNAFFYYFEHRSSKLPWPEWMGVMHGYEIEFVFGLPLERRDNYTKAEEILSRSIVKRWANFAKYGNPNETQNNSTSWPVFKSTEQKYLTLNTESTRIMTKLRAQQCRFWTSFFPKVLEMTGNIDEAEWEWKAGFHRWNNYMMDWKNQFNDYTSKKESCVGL
Sequence of acetylcholinesterase (AChE) (P22303 32-614, species assumed): as the sequence (P22303 32-614, species assumed) above

SMILES	IC50 [1]	inhibition at 35 µM [2]	Ki (AChE)	type of AChE inhibition (AChE; Lineweaver-Burk plot, substrate ATChI)	IC50 [2]	inhibition at 35 µM [1]
O=c1ccc2ccc(OCCCCOc3cccc4cccnc34)cc2o1 [Compound 3a, 7-(4-(Quinolin-8-yloxy)butoxy)-2H-chromen-2-one]	28.3 µM	48%				
O=c1ccc2ccc(OCCCCCOc3cccc4cccnc34)cc2o1 [Compound 3b, 7-((5-(Quinolin-8-yloxy)pentyl)oxy)-2H-chromen-2-one]	26.5 µM		1.32 µM	mixed-type inhibition	8.8 µM	
Cc1cc(=O)oc2cc(OCCCOc3cccc4cccnc34)ccc12 [Compound 3c, 4-Methyl-7-(3-(quinolin-8-yloxy)propoxy)-2H-chromen-2-one]	32.4 µM				11.3 µM	
Cc1cc(=O)oc2cc(OCCCCCOc3cccc4cccnc34)ccc12 [Compound 3d, 4-Methyl-7-((5-(quinolin-8-yloxy)pentyl)oxy)-2H-chromen-2-one]					14 µM	34.6%
CCOC(=O)c1cc2ccc(OCCCOc3cccc4cccnc34)cc2oc1=O [Compound 3e, Ethyl 2-oxo-7-(3-(quinolin-8-yloxy)propoxy)-2H-chromene-3-carboxylate]					16.2 µM	46%
CCOC(=O)c1cc2ccc(OCCCCCOc3cccc4cccnc34)cc2oc1=O [Compound 3f, Ethyl 2-oxo-7-((5-(quinolin-8-yloxy)pentyl)oxy)-2H-chromene-3-carboxylate]					8.94 µM	29.2%
O=C(O)c1cc2ccc(OCCCOc3cccc4cccnc34)cc2oc1=O [Compound 3g, 2-Oxo-7-(3-(quinolin-8-yloxy)propoxy)-2H-chromene-3-carboxylic acid]		15%				2%
O=c1cc(-c2ccccc2)c2ccc(NCCCOc3cccc4cccnc34)cc2o1 [Compound 3h, 4-Phenyl-7-((3-(quinolin-8-yloxy)propyl)amino)-2H-chromen-2-one]					30.2 µM	37%
O=c1ccc2ccc(OCCCCCSc3nc4ccccc4[nH]3)cc2o1 [Compound 3i, 7-((5-((1H-Benzo[d]imidazol-2-yl)thio)pentyl)oxy)-2H-chromen-2-one]					11.7 µM	38%
O=c1ccc2ccc(OCCCCCSc3nc4ccccc4o3)cc2o1 [Compound 3j, 7-((5-(Benzo[d]oxazol-2-ylthio)pentyl)oxy)-2H-chromen-2-one]					25.4 µM	14%
Cc1cc(=O)oc2cc(OCCCSc3nc4ccccc4o3)ccc12 [Compound 3k, 7-(3-(Benzo[d]oxazol-2-ylthio)propoxy)-4-methyl-2H-chromen-2-one]		44%				11%
O=c1cc(-c2ccccc2)c2ccc(NCCCSc3nc4ccccc4o3)cc2o1 [Compound 3l, 7-((3-(Benzo[d]oxazol-2-ylthio)propyl)amino)-4-phenyl-2H-chromen-2-one]					13 µM	26%
